One series deals with phosphodiesterase. As to conditions: cited from earlier work.

Counter-ions that a name gives are not always drawn. Like-named read-outs stand apart in the source and are kept apart here.

Consider `COC(=O)[C@H](c1ccccc1Cl)N1CCc2sccc2C1` [Clopidogrel], for which the phosphodiesterase activity result in the series on phosphodiesterase is “did not inhibit”.

Regarding `COC(=O)[C@H](c1ccccc1Cl)N1CCc2sccc2C1` [Clopidgrel salt, methyl(+)-(S)-α(2-chlorophenyl)-6,7-dihydrothieno[3,2-c]pyridine-5(4H)-acetate sulfate (1:1)], the angle of repose is, setting by setting: (after being mixed with Colloidal Silicon Dioxide) 40; (as is) “greater than 45”.
